Patent publication US20240360114A1 (SIRONAX LTD., priority 2021, published 2024)

Test system: HT-1080 cells
Test: HT-1080 cell viability assay (ferroptosis induced by RSL3, Cell Titer-Glo)
Type: cell-based
Conditions: Homo sapiens, HT-1080, 20 h, ferroptosis inducer RSL3, 20 hours, ferroptosis inhibitory activity, Table 2
Outline: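 EC50 fitted by sigmoidal dose-response regression on luminescent viability data normalized to untreated cells. Compounds ran as a 10-point, 3-fold series from 1.1 μM alongside RSL3 for 20 hours, after overnight seeding.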

`O=C1NC[C@H](C(=O)NC2CCC(Nc3ccc(C4CCCCC4)cc3)CC2)N1` (stereo partly drawn) [Compound 111, (R)—N-(4-((4-cyclohexylphenyl)amino)cyclohexyl)-2-oxoimidazolidine-4-carboxamide] was tested. Which EC50 did it give?
Its EC50 is 100 to 1000 nM.

`CC1CN(c2ccc(NC3CC4(CC(N)C4)C3)c(F)c2)CC(C)O1` (stereo not drawn) [Compound 461, N2-(4-(2,6-dimethylmorpholino)-2-fluorophenyl)spiro[3.3]heptane-2,6-diamine] was tested. Which EC50 did it give?
Its EC50 is 0.1 to 100 nM.

For `CC(=O)NC1CCC(Nc2ccc(C(C)(C)C)cc2)CC1` (single isomer, unassigned) [Compound 216A, N-(4-((4-(tert-butyl)phenyl)amino)cyclohexyl)acetamide], which EC50 is on record?
Its EC50 is 100 to 1000 nM.

With `NC1C[C@@H]2CC(Nc3ccc(N4CCC(C(F)(F)F)CC4)cc3F)C[C@@H]2C1` (stereo partly drawn) [Compound 372, (3aR, 6aS)-N2-(2-fluoro-4-(4-(trifluoromethyl)piperidin-1-yl)phenyl)octahydropentalene-2,5-di amine] as the molecule, how does the EC50 read?
Its EC50 is 0.1 to 100 nM.

For `CNC1CCC(Nc2ccc(C(C)(C)C)cc2)C1` (stereo not drawn) [Compound 194, N1-(4-(tert-butyl)phenyl)-N3-methylcyclopentane-1,3-diamine], which EC50 is on record?
The EC50 was 100 to 1000 nM.

`Cc1c(NC[C@H]2CC[C@H](N)CC2)ccc(N2CC(C)OC(C)C2)c1C` (stereo partly drawn) [Compound 452, N-(((1r,4r)-4-aminocyclohexyl)methyl)-4-(2,6-dimethylmorpholino)-2,3-dimethylaniline] was tested. Which EC50 did it give?
The EC50 was 0.1 to 100 nM.

Which EC50 does the source give for `CC1(C)CCC(c2ccc(NC3CC(NC(=O)[C@H]4CNC(=O)N4)C3)cc2)CC1` (stereo partly drawn) [Compound 129, (R)—N-(3-((4-(4,4-dimethylcyclohexyl)phenyl)amino)cyclobutyl)-2-oxoimidazolidine-4-carboxamide] here?
The EC50 was 100 to 1000 nM.

How did the EC50 turn out when `NC1CCC(Nc2ncc(N3CCC(C(F)(F)F)CC3)cn2)CC1` (single isomer, unassigned) [Compound 64A] was run?
Its EC50 is 1000 to 10000 nM.

For `CC(C)(CN1CCCC1)Nc1ccc(C(C)(C)C)cc1` [Compound 227, 4-(tert-butyl)-N-(2-methyl-1-(pyrrolidin-1-yl)propan-2-yl)aniline], which EC50 is on record?
The EC50 was 1000 to 10000 nM.

Which EC50 does the source give for `Cc1nc(N2C3COCC2C3)ccc1NC1CC2(CC(N)C2)C1` (stereo not drawn) [Compound 523, N2-(6-(3-oxa-6-azabicyclo[3.1.1]heptan-6-yl)-2-methylpyridin-3-yl)spiro[3.3]heptane-2,6-diamine] here?
The EC50 was 1000 to 10000 nM.

`CC(C)(C)c1ccc(NC2CC3(CC(N)C3)C2)cc1` (stereo not drawn) [Compound 276, N2-(4-(tert-butyl)phenyl)spiro[3.3]heptane-2,6-diamine] was tested. Which EC50 did it give?
The EC50 was 0.1 to 100 nM.

For `CC(C)(C)c1ccc(N[C@H]2CC[C@@H](N)CC2)cc1` [Compound 198, (1s,4s)-N1-(4-(tert-butyl)phenyl)cyclohexane-1,4-diamine], which EC50 is on record?
The EC50 was 100 to 1000 nM.

For `NC1CCC(Nc2ccc(CC(F)(F)F)cc2)CC1` (stereo not drawn) [Compound 223, N1-(4-(2,2,2-trifluoroethyl)phenyl)cyclohexane-1,4-diamine], which EC50 is on record?
Its EC50 is 1000 to 10000 nM.

How did the EC50 turn out when `CCOCCCc1ccc(NC2CCC(N)CC2)cc1` (stereo not drawn) [Compound 262, (1s,4s)-N1-(4-(3-ethoxypropyl)phenyl)cyclohexane-1,4-diamine] was run?
The EC50 was 100 to 1000 nM.

With `Cc1cc(N2CCC(C)(C)CC2)ccc1NC1CCC(N)CC1` (stereo not drawn) [Compound 381, N1-(4-(4,4-dimethylpiperidin-1-yl)-2-methylphenyl)cyclohexane-1,4-diamine] as the molecule, how does the EC50 read?
The EC50 was 0.1 to 100 nM.

Same assay, conditions: Homo sapiens, HT-1080, 20 h, ferroptosis inducer RSL3, 20 hours, ferroptosis inhibitory activity, Table 3

For `CC[C@@H]1CN(c2ccc(NC3CC(N)C3)c(C)n2)C[C@H](CC)O1` (stereo partly drawn) [Compound 576, N1-(6-((2S,6R)-2,6-diethylmorpholino)-2-methylpyridin-3-yl)cyclobutane-1,3-diamine], which EC50 is on record?
The EC50 was 0.1 to 100 nM.

How did the EC50 turn out when `Cc1nc(N(C)CC(F)(F)F)ccc1NC1CC2CCC(C1)N2` (stereo not drawn) [Compound 656, N^5-(8-azabicyclo[3.2.1]octan-3-yl)-N^2,6-dimethyl-N^2-(2,2,2-trifluoroethyl)pyridine-2,5-diamine] was run?
Its EC50 is 0.1 to 100 nM.

Same assay, conditions: ferroptosis inducer RSL3, 20 hours, ferroptosis inhibitory activity, Table 3

`CC1CN(c2ccc3cc(NC4CC(N)C4)ccc3c2)CCO1` (stereo not drawn) [Compound 630, N^1-(6-(2-methylmorpholino)naphthalen-2-yl)cyclobutane-1,3-diamine] was tested. Which EC50 did it give?
Its EC50 is 0.1 to 100 nM.
